Source: ChEMBL document CHEMBL4507269, “Data for DCP probe BAY-386” (2021)

What was measured:
[1] = test system: Mast/stem cell growth factor receptor Kit (Homo sapiens), P10721 [D816H]; conditions: Compound concentration 1000.0 nM
[2] = target: Serine/threonine-protein kinase RIO3 (Homo sapiens) (UniProt O14730); conditions: Compound concentration 1000.0 nM
[3] = target: Beta-2 adrenergic receptor (Homo sapiens) (UniProt P07550); conditions: Compound concentration 10.0 uM
[4] = target: Protein kinase C eta type (Homo sapiens) (UniProt P24723); conditions: Compound concentration 1000.0 nM
[5] = target: MAP kinase-activated protein kinase 2 (Homo sapiens) (UniProt P49137); conditions: Compound concentration 1000.0 nM
[6] = test system: Receptor-type tyrosine-protein kinase FLT3 (Homo sapiens), P36888 [D835H]; conditions: Compound concentration 1000.0 nM
[7] = target: STE20/SPS1-related proline-alanine-rich protein kinase (Homo sapiens) (UniProt Q9UEW8); conditions: Compound concentration 1000.0 nM
[8] = target: Serine/threonine-protein kinase MRCK alpha (Homo sapiens) (UniProt Q5VT25); conditions: Compound concentration 1000.0 nM
[9] = test system: Tyrosine-protein kinase ABL1 (Homo sapiens), P00519 [E255K]; conditions: Compound concentration 1000.0 nM
[10] = target: Macrophage-stimulating protein receptor (Homo sapiens) (UniProt Q04912); conditions: Compound concentration 1000.0 nM
[11] = target: Serine/threonine-protein kinase WNK2 (Homo sapiens) (UniProt Q9Y3S1); conditions: Compound concentration 1000.0 nM
[12] = test system: Mast/stem cell growth factor receptor Kit (Homo sapiens), P10721 [L576P]; conditions: Compound concentration 1000.0 nM
[13] = target: Muscarinic acetylcholine receptor M5 (Homo sapiens) (UniProt P08912); conditions: Compound concentration 10.0 uM
[14] = target: Vascular endothelial growth factor receptor 3 (Homo sapiens) (UniProt P35916); conditions: Compound concentration 1000.0 nM
[15] = target: Serine/threonine-protein kinase NLK (Homo sapiens) (UniProt Q9UBE8); conditions: Compound concentration 1000.0 nM
Sequence of Serine/threonine-protein kinase NLK (Homo sapiens) (Q9UBE8 whole entry): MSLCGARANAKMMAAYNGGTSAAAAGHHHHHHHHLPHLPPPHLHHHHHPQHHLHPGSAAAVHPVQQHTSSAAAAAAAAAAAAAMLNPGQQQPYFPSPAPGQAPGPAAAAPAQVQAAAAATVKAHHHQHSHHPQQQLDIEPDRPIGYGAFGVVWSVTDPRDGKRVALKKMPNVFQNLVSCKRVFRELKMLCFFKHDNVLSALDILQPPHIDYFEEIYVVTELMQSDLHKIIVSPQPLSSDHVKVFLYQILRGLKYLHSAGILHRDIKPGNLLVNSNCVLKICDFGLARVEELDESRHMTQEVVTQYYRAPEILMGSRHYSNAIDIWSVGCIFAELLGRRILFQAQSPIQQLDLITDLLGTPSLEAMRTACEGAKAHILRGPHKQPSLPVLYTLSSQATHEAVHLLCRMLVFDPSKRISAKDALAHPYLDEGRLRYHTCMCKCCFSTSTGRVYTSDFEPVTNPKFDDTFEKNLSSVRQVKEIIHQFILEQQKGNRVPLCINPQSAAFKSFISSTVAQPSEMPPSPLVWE

[16] = test system: Serine/threonine-protein kinase B-raf (Homo sapiens), P15056 [V600E]; conditions: Compound concentration 1000.0 nM
[17] = target: Mitogen-activated protein kinase kinase kinase 13 (Homo sapiens) (UniProt O43283); conditions: Compound concentration 1000.0 nM
[18] = target: G protein-coupled receptor kinase 4 (Homo sapiens) (UniProt P32298); conditions: Compound concentration 1000.0 nM
Sequence of G protein-coupled receptor kinase 4 (Homo sapiens) (P32298 whole entry, looked up): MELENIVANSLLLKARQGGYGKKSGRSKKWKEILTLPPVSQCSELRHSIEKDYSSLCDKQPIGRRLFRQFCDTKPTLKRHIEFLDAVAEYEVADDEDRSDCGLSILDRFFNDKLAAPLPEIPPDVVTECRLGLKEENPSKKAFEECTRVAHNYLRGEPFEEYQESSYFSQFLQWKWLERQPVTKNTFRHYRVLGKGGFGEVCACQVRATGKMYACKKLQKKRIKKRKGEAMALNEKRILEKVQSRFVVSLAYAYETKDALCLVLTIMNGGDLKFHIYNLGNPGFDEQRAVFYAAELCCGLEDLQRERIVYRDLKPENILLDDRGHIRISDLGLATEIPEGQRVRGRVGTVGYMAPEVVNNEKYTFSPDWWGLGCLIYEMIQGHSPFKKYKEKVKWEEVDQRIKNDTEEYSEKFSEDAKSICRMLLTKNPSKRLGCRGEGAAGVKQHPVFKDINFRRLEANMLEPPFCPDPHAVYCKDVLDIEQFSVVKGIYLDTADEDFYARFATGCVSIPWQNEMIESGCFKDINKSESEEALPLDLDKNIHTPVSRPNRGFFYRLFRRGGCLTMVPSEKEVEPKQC

[19] = target: Serine/threonine-protein kinase ULK3 (Homo sapiens) (UniProt Q6PHR2); conditions: Compound concentration 1000.0 nM
[20] = target: MAP/microtubule affinity-regulating kinase 3 (Homo sapiens) (UniProt P27448); conditions: Compound concentration 1000.0 nM
[21] = target: Mast/stem cell growth factor receptor Kit (Homo sapiens) (UniProt P10721); conditions: Compound concentration 1000.0 nM
[22] = target: D(3) dopamine receptor (Homo sapiens) (UniProt P35462); conditions: Compound concentration 10.0 uM
[23] = target: Serine/threonine-protein kinase D3 (Homo sapiens) (UniProt O94806); conditions: Compound concentration 1000.0 nM
[24] = target: Glycogen synthase kinase-3 beta (Homo sapiens) (UniProt P49841); conditions: Compound concentration 1000.0 nM
[25] = target: Epithelial discoidin domain-containing receptor 1 (Homo sapiens) (UniProt Q08345); conditions: Compound concentration 1000.0 nM
Sequence of Epithelial discoidin domain-containing receptor 1 (Homo sapiens) (Q08345 whole entry, the tested form may be a part): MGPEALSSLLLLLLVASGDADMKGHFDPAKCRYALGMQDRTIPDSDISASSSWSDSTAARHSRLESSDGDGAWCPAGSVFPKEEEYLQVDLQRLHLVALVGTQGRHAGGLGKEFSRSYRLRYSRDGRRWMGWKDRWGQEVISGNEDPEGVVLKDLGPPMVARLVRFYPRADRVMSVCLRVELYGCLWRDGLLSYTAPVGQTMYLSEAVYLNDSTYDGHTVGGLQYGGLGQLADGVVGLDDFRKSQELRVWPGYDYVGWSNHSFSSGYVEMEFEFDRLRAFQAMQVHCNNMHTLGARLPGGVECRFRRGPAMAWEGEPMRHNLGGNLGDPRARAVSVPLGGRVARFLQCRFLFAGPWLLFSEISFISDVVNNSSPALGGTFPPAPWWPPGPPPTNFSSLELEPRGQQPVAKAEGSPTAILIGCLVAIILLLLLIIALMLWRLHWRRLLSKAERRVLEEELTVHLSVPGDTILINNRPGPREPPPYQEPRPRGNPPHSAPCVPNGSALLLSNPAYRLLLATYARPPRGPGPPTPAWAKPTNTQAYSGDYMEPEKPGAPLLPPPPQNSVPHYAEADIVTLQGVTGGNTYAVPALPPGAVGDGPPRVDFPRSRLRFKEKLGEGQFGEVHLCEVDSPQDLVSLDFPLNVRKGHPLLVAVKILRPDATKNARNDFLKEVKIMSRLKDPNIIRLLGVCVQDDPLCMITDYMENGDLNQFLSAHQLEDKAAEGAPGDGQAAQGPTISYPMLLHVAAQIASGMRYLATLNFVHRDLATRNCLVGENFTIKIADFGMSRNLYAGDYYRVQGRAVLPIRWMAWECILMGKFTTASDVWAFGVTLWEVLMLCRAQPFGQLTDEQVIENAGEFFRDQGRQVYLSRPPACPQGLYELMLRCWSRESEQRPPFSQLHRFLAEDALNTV

[26] = target: Ephrin type-B receptor 4 (Homo sapiens) (UniProt P54760); conditions: Compound concentration 1000.0 nM
[27] = test system: Phosphatidylinositol 4,5-bisphosphate 3-kinase catalytic subunit alpha isoform (Homo sapiens), P42336 [I800L]; conditions: Compound concentration 1000.0 nM
[28] = target: Mitogen-activated protein kinase kinase kinase kinase 5 (Homo sapiens) (UniProt Q9Y4K4); conditions: Compound concentration 1000.0 nM
[29] = target: Cannabinoid receptor 1 (Homo sapiens) (UniProt P21554); test: CB1 (h) Eurofins-Cerep Cellular and Nuclear Receptor Functional Assays; conditions: Compound concentration 10.0 uM
Sequence of Cannabinoid receptor 1 (Homo sapiens) (P21554 whole entry): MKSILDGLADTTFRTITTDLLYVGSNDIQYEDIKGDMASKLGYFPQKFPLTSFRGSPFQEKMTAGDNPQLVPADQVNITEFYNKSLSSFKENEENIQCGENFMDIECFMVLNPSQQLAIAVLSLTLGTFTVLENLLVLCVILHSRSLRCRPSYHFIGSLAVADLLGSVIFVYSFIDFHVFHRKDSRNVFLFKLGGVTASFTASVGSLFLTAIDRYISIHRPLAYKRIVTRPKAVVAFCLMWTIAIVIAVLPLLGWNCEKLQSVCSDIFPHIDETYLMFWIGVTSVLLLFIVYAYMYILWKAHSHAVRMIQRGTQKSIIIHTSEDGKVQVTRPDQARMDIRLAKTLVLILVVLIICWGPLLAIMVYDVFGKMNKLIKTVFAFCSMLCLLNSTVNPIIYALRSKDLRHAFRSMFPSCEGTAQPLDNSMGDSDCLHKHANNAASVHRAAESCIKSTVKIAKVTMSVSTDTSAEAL

[30] = target: Mitogen-activated protein kinase 7 (Homo sapiens) (UniProt Q13164); conditions: Compound concentration 1000.0 nM
[31] = target: Mitogen-activated protein kinase kinase kinase 4 (Homo sapiens) (UniProt Q9Y6R4); conditions: Compound concentration 1000.0 nM
[32] = target: Serine/threonine-protein kinase DCLK2 (Homo sapiens) (UniProt Q8N568); conditions: Compound concentration 1000.0 nM
[33] = target: Serine/threonine-protein kinase haspin (Homo sapiens) (UniProt Q8TF76); conditions: Compound concentration 1000.0 nM
[34] = target: Histamine H3 receptor (Homo sapiens) (UniProt Q9Y5N1); test: H3 (h) Eurofins-Cerep Cellular and Nuclear Receptor Functional Assays; conditions: Compound concentration 10.0 uM
Sequence of Histamine H3 receptor (Homo sapiens) (Q9Y5N1 whole entry, the tested form may be a part): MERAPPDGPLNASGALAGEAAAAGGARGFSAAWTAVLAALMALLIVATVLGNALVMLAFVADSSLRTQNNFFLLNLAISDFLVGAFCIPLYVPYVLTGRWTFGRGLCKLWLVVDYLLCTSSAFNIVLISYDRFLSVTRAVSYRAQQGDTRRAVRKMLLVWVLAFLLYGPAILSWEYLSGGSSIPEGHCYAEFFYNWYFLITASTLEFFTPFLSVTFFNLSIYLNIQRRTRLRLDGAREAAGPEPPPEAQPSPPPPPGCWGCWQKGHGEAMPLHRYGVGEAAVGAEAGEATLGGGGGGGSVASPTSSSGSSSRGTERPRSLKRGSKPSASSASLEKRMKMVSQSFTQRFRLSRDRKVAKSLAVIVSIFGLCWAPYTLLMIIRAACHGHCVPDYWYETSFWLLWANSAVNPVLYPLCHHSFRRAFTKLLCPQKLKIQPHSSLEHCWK

[35] = target: LIM domain kinase 1 (Homo sapiens) (UniProt P53667); conditions: Compound concentration 1000.0 nM
[36] = target: Dual specificity mitogen-activated protein kinase kinase 7 (Homo sapiens) (UniProt O14733); conditions: Compound concentration 1000.0 nM
Sequence of Dual specificity mitogen-activated protein kinase kinase 7 (Homo sapiens) (O14733 whole entry): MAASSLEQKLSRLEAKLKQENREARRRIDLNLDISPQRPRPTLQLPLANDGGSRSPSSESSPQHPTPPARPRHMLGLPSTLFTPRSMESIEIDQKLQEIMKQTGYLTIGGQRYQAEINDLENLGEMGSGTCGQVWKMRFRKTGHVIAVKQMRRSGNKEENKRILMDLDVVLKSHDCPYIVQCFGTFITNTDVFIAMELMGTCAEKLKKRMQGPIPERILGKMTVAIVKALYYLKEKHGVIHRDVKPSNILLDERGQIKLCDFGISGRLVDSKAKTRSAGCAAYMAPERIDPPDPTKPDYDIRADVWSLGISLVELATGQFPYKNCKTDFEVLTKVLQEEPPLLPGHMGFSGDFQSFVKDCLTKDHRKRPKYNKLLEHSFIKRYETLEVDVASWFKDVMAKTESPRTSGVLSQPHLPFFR

[37] = target: Calcium/calmodulin-dependent protein kinase type II subunit beta (Homo sapiens) (UniProt Q13554); conditions: Compound concentration 1000.0 nM
[38] = target: Serine/threonine-protein kinase D2 (Homo sapiens) (UniProt Q9BZL6); conditions: Compound concentration 1000.0 nM
[39] = target: Tyrosine-protein kinase Blk (Homo sapiens) (UniProt P51451); conditions: Compound concentration 1000.0 nM
[40] = target: 5-hydroxytryptamine receptor 2B (Homo sapiens) (UniProt P41595); conditions: Compound concentration 10.0 uM
[41] = target: Serine/threonine-protein kinase tousled-like 2 (Homo sapiens) (UniProt Q86UE8); conditions: Compound concentration 1000.0 nM
[42] = target: Tyrosine-protein kinase Fyn (Homo sapiens) (UniProt P06241); conditions: Compound concentration 1000.0 nM
[43] = test system: Epidermal growth factor receptor (Homo sapiens), P00533 [UNDEFINED MUTATION]; conditions: Compound concentration 1000.0 nM
[44] = target: Homeodomain-interacting protein kinase 2 (Homo sapiens) (UniProt Q9H2X6); conditions: Compound concentration 1000.0 nM
Sequence of Homeodomain-interacting protein kinase 2 (Homo sapiens) (Q9H2X6 whole entry, looked up): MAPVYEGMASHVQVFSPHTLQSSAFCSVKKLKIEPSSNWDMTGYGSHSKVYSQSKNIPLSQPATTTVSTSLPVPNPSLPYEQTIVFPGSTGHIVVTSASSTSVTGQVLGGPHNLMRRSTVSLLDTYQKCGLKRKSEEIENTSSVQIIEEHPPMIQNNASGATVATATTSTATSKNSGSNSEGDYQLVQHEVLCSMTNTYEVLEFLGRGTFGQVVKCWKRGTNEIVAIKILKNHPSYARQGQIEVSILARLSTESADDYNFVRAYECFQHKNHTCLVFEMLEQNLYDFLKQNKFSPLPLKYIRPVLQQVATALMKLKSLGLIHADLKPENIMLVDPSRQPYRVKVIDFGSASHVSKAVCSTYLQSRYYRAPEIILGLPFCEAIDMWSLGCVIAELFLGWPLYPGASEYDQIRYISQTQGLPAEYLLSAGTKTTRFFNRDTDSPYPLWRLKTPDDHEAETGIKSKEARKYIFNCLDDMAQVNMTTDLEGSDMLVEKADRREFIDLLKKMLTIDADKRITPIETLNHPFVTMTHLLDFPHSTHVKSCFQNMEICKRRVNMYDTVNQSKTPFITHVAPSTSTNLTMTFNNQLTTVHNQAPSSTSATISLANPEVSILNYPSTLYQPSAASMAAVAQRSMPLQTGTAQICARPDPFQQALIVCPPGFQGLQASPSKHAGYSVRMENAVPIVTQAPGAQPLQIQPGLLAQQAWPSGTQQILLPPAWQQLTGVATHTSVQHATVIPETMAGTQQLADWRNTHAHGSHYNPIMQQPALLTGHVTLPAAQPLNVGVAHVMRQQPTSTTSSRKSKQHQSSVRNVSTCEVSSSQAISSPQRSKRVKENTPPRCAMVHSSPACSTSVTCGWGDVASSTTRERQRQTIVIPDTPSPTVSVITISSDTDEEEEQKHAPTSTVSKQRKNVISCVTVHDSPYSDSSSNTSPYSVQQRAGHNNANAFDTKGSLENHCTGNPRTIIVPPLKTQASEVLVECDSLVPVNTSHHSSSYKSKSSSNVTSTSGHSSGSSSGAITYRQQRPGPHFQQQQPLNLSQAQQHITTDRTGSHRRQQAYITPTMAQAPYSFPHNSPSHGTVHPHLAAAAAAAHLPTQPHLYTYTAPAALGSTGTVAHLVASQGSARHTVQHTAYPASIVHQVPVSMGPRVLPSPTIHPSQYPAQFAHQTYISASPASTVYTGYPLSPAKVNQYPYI

Sequence of Beta-2 adrenergic receptor (Homo sapiens) (P07550 whole entry, looked up): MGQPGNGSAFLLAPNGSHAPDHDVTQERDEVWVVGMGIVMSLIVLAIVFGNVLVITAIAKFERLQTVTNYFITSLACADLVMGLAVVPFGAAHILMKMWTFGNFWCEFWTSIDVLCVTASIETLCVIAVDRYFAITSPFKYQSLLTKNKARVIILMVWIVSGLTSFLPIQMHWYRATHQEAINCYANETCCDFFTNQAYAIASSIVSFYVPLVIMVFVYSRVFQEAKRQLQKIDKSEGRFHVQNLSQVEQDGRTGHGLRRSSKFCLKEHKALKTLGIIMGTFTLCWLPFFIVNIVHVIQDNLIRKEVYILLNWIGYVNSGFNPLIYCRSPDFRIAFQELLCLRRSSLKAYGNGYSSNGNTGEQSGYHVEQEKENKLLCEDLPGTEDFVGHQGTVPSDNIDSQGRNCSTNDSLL

## Cc1noc([C@H]2C[C@@H](c3ccc(C(F)(F)F)cc3)CN(C(=O)N3CCS(=O)(=O)C3)C2)n1 [BAY-448]
[1]
  residual activity: 100%
[2]
  residual activity: 100%
[3]
  inhibition: 24%
[4]
  residual activity: 95%
[5]
  residual activity: 97%
[6]
  residual activity: 100%
[7]
  residual activity: 95%
[8]
  residual activity: 100%
[9]
  residual activity: 100%
[10]
  residual activity: 100%
[11]
  residual activity: 100%
[12]
  residual activity: 100%
[13]
  inhibition: -1.71%
[14]
  residual activity: 100%
[15]
  residual activity: 70%
[16]
  residual activity: 89%
[17]
  residual activity: 100%
[18]
  residual activity: 99%
[19]
  residual activity: 77%
[20]
  residual activity: 100%
[21]
  residual activity: 84%
[22]
  inhibition: -2.97%
[23]
  residual activity: 100%
[24]
  residual activity: 92%
[25]
  residual activity: 100%
[26]
  residual activity: 100%
[27]
  residual activity: 100%
[28]
  residual activity: 100%
[29]
  % Inhibition of Control Agonist Response (Mean n=2): -0.6%
  % of Control Agonist Response (Mean n=2): -17.6%
[30]
  residual activity: 87%
[31]
  residual activity: 72%
[32]
  residual activity: 100%
[33]
  residual activity: 100%
[34]
  % Inhibition of Control Agonist Response (Mean n=2): -4.2%
  % of Control Agonist Response (Mean n=2): 13.9%
[35]
  residual activity: 100%
[36]
  residual activity: 100%
[37]
  residual activity: 100%
[38]
  residual activity: 100%
[39]
  residual activity: 100%
[40]
  inhibition: 16.8%
[41]
  residual activity: 100%
[42]
  residual activity: 94%
[43]
  residual activity: 78%
[44]
  residual activity: 100%

## O=C(N1CCS(=O)(=O)CC1)N1C[C@H](c2ccc(OC(F)(F)F)cc2)C[C@H](c2nc(C3CC3)no2)C1 [BAY-386]
[1]
  residual activity: 71%
[2]
  residual activity: 85%
[3]
  inhibition: 11.8%
[4]
  residual activity: 100%
[5]
  residual activity: 100%
[6]
  residual activity: 92%
[7]
  residual activity: 100%
[8]
  residual activity: 100%
[9]
  residual activity: 100%
[10]
  residual activity: 100%
[11]
  residual activity: 73%
[12]
  residual activity: 100%
[13]
  inhibition: 4.1%
[14]
  residual activity: 100%
[15]
  residual activity: 100%
[16]
  residual activity: 100%
[17]
  residual activity: 98%
[18]
  residual activity: 100%
[19]
  residual activity: 93%
[20]
  residual activity: 98%
[21]
  residual activity: 100%
[22]
  inhibition: 5.09%
[23]
  residual activity: 100%
[24]
  residual activity: 100%
[25]
  residual activity: 100%
[26]
  residual activity: 100%
[27]
  residual activity: 68%
[28]
  residual activity: 100%
[29]
  % Inhibition of Control Agonist Response (Mean n=2): 80.7%
  % of Control Agonist Response (Mean n=2): -267%
[30]
  residual activity: 100%
[31]
  residual activity: 83%
[32]
  residual activity: 0%
[33]
  residual activity: 95%
[34]
  % Inhibition of Control Agonist Response (Mean n=2): -3.7%
  % of Control Agonist Response (Mean n=2): 6.2%
[35]
  residual activity: 100%
[36]
  residual activity: 100%
[37]
  residual activity: 100%
[38]
  residual activity: 100%
[39]
  residual activity: 100%
[40]
  inhibition: 17.1%
[41]
  residual activity: 100%
[42]
  residual activity: 80%
[43]
  residual activity: 100%
[44]
  residual activity: 100%
